Source: US20260265267A1, “NOVEL COMPOUNDS WITH MTORC2-INHIBITORY ACTIVITY AND USES THEREOF” (Aliad Biopharma, priority 2023, published 2026)

Experiments:
[1] = system: 5×FAD Alzheimer's disease model mice; test: Passive avoidance test in 5×FAD mice (long-term memory); type: in vivo; conditions: 5 mg/kg, 14 days / 2 weeks (FIG. 7)
Procedure: In order to evaluate the efficacy of HN2210, HN2213, and HN2313 on Alzheimer's disease-related symptoms, specifically regarding 1) memory and cognitive impairment, 2) amyloid plaques, 3) neurofibrillary tangles (NFTs), and 4) brain inflammation, an in vivo efficacy assessment of HN2210, HN2213 and HN2313 was conducted using 5×FAD Alzheimer's disease model mice. The 5×FAD mice were purchased from Jackson Lab, USA (Cat #034840-JAX) and crossed once with C57bl6 mice to produce F1 heterozygous offspring (Het). The compound was administered via intraperitoneal injection to 6-month-old 5×FAD Het mice, followed by behavioral testing. The normal control mice, which were littermates of the 5×FAD Het mice, were aged to 6 months and received DMSO injection at the same volume.
Specifically, to mice trained to avoid bright light three times daily, an electric foot shock (1 mA, 300 g) was applied for 3 seconds in a dark room at the same time on the next day. After 24 hours, the mice were placed again in the same room, and the avoidance response by light, that is, the time taken to move from the bright room to the dark room was measured. At 24 hours after habituation training, the mice were placed back into the bright room, and the latency time for entering the dark room was recorded over a period of 720 seconds.

mTORC2 [2] = target: T1, mTORC2 (Homo sapiens, UniProt P42345); test: mTORC2 inhibitory activity in HeLa cells (Akt Ser473 phosphorylation, Western blot); type: cell-based; conditions: for selective inhibition of mTORC2: 40 μM, versus mTORC1; for selective inhibition of mTORC2 / remaining activity at 40 µM: 9 hours; for remaining activity at 40 µM: read-out: pSer473-AKT/AKT (% control); for inhibition at 40 µM: HeLa, 9 h, read-out: reduction in Akt Ser473 phosphorylation compared to the control group
T1 construct: the following experiments were conducted in HeLa cells; endogenous in cells; host or cells: HeLa
Procedure: (§1) Specifically, HeLa cells were cultured in a 5% CO2 incubator at 37° C. in DMEM (Dulbecco's Modified Eagles Media) medium supplemented with 10% FBS, penicillin (100 unit/ml), and streptomycin (100 μg/ml). Cultivation was started by seeding 4×10^5 cells in a 100 mm culture dish, and subculture was carried out every 3 days.
(§2) Human cell line HeLa cells were seeded in a 60 mm culture dish at a density of 2×10^5 cells/plate, and cultured for 24 hours. Then, HeLa cells were treated with 70 types of compounds at a concentration of 40 μM each for 9 hours. HeLa cells were washed twice with cold 1×PBS, and then lysed with 100 μl of RIPA buffer (50 mM Tris-HCl (pH7.4), 0.25% sodium deoxycholate, 50 mM NaF, 1% NP-40, 150 mM NaCl, 1 mM β-glycerophosphate, 1 mM PMSF, 1 mM NaVO4, 1 μg/ml leupeptin, 1 μg/ml pepstatin A, 10 nM calyculin A, 10 μg/ml aprotinin, 1 mM EDTA) to hemolyze the cell membrane. Then, the lysates were centrifuged at 12,000 rpm at 4° C. for 10 minutes to collect the supernatant, which is cell lysate. Protein concentration in the cell lysate was determined using the BCA protein assay kit (Thermo Fisher Scientific), and equal amounts of protein were separated by SDS-PAGE.
(§3) Western blot analysis was performed by the following method. […] After washing the membrane three times for 5 minutes each with TBS-T buffer, it was incubated with primary antibodies diluted in TBS-T buffer containing 5% skim milk or 5% BSA overnight at 4° C. Subsequently, the membrane was washed three times for 5 minutes each with TBS-T buffer, and then incubated with secondary antibodies diluted in TBS-T buffer containing 5% skim milk at room temperature for 30 minutes. The membrane was washed five times for 5 minutes each with TBS-T buffer containing 5% skim milk, and then the protein bands bound by the secondary antibody were detected using a chemiluminescence method. The primary antibodies used were Akt (cell signaling, #4691), pAkt(S473) (Cell signaling, #4060), p70S6K (Cell signaling, #S6198), pp70S6K(T389) (cell signaling, #9205S), LC3-II (MBL, #PM036), and the secondary antibodies used were HRP conjugated anti-rabbit (Jackson immunoresearch laboratory, #711-035-152) and HRP conjugated anti-mouse IgG (Jackson immunoresearch laboratory, #515-035-072).
As an mTORC2 activity indicator in HeLa cells, the level of Akt Ser473 phosphorylation was selected as a marker, and the phosphor-Akt (Ser473) signal obtained from Western blot analysis was normalized to the pan-Akt signal, and the data were expressed as a percentage relative to the control group treated with DMSO only, which is a vehicle.

mTORC1 [3] = target: T2, mTORC1 (Homo sapiens, UniProt P42345); test: mTORC1 inhibitory activity in HeLa cells (p70S6K Thr389 phosphorylation, Western blot); type: cell-based; conditions: for remaining activity at 40 µM: read-out: pThr389-S6K/S6K (% control); for inhibition at 40 µM: HeLa, 9 h, read-out: reduction in p70S6K Thr389 phosphorylation compared to the control group
T2 construct: the following experiments were conducted in HeLa cells; endogenous in cells; host or cells: HeLa
Procedure: as §1, §2, §3
As an mTORC1 activity indicator in HeLa cells, the level of p70S6K Thr389 phosphorylation was selected as a marker, and the level of phosphor-p70S6K (Thr389) signal measured by Western blot analysis was normalized to a level of pan-p70S6K signal, and then expressed as a percentage of the control group treated with only DMSO, which is a vehicle.

mTORC2 [4] = test: mTORC2 inhibitory activity in primary cultured cerebral neurons (Akt Ser473 phosphorylation); type: cell-based, SD mice; conditions: for pSer473-AKT/AKT (% control) / effect on Akt Ser473 phosphorylation: 24 hours; for effect on Akt Ser473 phosphorylation / decrease in AKT Ser473 phosphorylation at 24 hours: 500 nM or 100 nM
Procedure: Specifically, primary neural cells were cultured from the cerebral cortex of E16 embryos of SD mice with a gestational age 16-day (Orient Bio). The extracted brain was separated into the left and right hemispheres, the meninges were removed, and the brains were treated with trypsin in Ca^2+/Mg^2+-free HBSS solution.
The time-dependent changes in Akt Ser473 phosphorylation, Akt Thr308 phosphorylation, and LC3-II levels were measured by Western blot analysis.

mTORC1 [5] = test: mTORC1 inhibitory activity in primary cultured cerebral neurons (S6K Thr389 phosphorylation); type: cell-based, SD mice; conditions: for pThr389-S6K/S6K (% control): 24 hours; for effect on S6K Thr389 phosphorylation: 500 nM or 100 nM, time course to 24 hours (HN2304: from 6 to 24 hours)
LC3-II [6] = test: LC3-II levels in primary cultured cerebral neurons; type: cell-based, SD mice; conditions: for LC3-II (% control): 24 hours; for effect on LC3-II: 500 nM or 100 nM, time course to 24 hours
Procedure: Specifically, primary neural cells were cultured from the cerebral cortex of E16 embryos of SD […] with a gestational age 16-day (Orient Bio). The extracted brain was separated into the left and right hemispheres, the meninges were removed, and the brains were treated with trypsin in Ca^2+/Mg^2+-free HBSS solution. […] The cells were seeded at a density of 19,000 cells/cm^2 onto 35 mm culture dishes coated with 50 μg/ml poly-D-Lysine (Sigma, P0899) and 1 μg/ml laminin (Invitrogen, 23017-015), and then maintained in neurobasal complete media supplemented with B27 (Gibco, 17504-044) in a 5% CO2 incubator.
Therefore, the evaluation of mTORC2 inhibitory activity in primary cultured cerebral cells was conducted using the same method as in Experimental Example 1, except that each compound was treated at concentrations of 500 nM or 100 nM for 24 hours. The time-dependent changes in Akt Ser473 phosphorylation, Akt Thr308 phosphorylation, and LC3-II levels were measured by Western blot analysis.

LC3-II [7] = test: LC3-II formation as indicator of autophagy in HeLa cells (Western blot); type: cell-based, human; conditions: Homo sapiens, 9 hours, read-out: LC3-II (% control)
Procedure: as §1, §2, §3
LC3-II formation was selected as an indicator of autophagy in HeLa cells, and the LC3-II signal obtained from Western blot analysis was normalized to the pan-Akt signal and the data were expressed as a percentage relative to the control group treated with DMSO only, which is a vehicle.

selective inhibition of mTORC2 (mTORC2 [2]) | remaining activity at 40 µM (mTORC2 [2]) [%] | remaining activity at 40 µM (mTORC1 [3]; 9 hours) [%] | inhibition at 40 µM (mTORC2 [2]) [%] | Structure (SMILES) | activity at 40 µM (LC3-II [7]) [%] | further results
selectively inhibit mTORC2 | 44 | 95 |  | COc1cc2c(cc1OC)C(=O)c1cc(-c3ccoc3)ccc1CS2 [HN2308, 9-(3-furanyl)-2,3-dimethoxydibenzo[b,e]thiepin-11(6H)-one] |  | effect on S6K Thr389 phosphorylation (mTORC1 [3]; 40 μM, 9 hours): no effect; selectivity for mTORC2 over mTORC1 (mTORC2 [4]): selective mTORC2 inhibitors; pSer473-AKT/AKT (% control) (mTORC2 [4]; 100 nM): 46 % control; effect on Akt Ser473 phosphorylation (mTORC2 [4]): reduce Akt Ser473 phosphorylation; decrease in AKT Ser473 phosphorylation at 24 hours (mTORC2 [4]): 54%; AKT Ser473 phosphorylation from 1 to 12 hours (mTORC2 [4]): increased AKT Ser473 phosphorylation significantly; pThr389-S6K/S6K (% control) (mTORC1 [5]; 100 nM): 104 % control; effect on S6K Thr389 phosphorylation (mTORC1 [5]): no effect; LC3-II (% control) (LC3-II [6]; 100 nM): 119 % control; effect on LC3-II (LC3-II [6]): no effect
selectively inhibit mTORC2 | 73 | 122 | > 20 | CS(=O)(=O)Nc1ccc2c(c1F)COc1cc3c(cc1C2=O)OCO3 [HN2302, N-(7-fluoro-11-oxo-6,11-dihydro-[1,3]dioxolo[4′,5′:4,5]benzo[1,2-b]benzo[e]oxepin-8-yl)methanesulfonamide] | 108 | 
 | 79 | 78 | > 20 | O=C1c2cc3c(cc2OCc2c1ccc(NC1CCCC1)c2F)OCO3 [HN2319, 8-(cyclopentylamino)-7-fluoro-[1,3]dioxolo[4′,5′:4,5]benzo[1,2-b]benzo[e]oxepin-11(6H)-one] | 157 | inhibition at 40 µM (mTORC1 [3]): > 20%
selectively inhibit mTORC2 | 42 | 109 | > 20 | O=C1c2cc3c(cc2OCc2c1ccc(NC1CC1)c2F)OCO3 [HN2318, 8-(cyclopropylamino)-7-fluoro-[1,3]dioxolo[4′,5′:4,5]benzo[1,2-b]benzo[e]oxepin-11(6H)-one] | 227 | 
 | 140 | 33 |  | COc1cc2c(cc1OC)C(=O)c1cc(F)c(NC3CCCC3)cc1CC2 [HN2321, 2-(cyclopentylamino)-3-fluoro-7,8-dimethoxy-10,11-dihydro-5H-dibenzo[a,d][7]annulen-5-one] | 160 | inhibition at 40 µM (mTORC1 [3]): > 20%
 | 87 | 44 |  | COc1cccc(CNc2cc3c(cc2F)C(=O)c2cc4c(cc2OC3)OCO4)c1 [HN2325, 9-fluoro-8-((3-methoxybenzyl)amino)-[1,3]dioxolo[4′,5′:4,5]benzo[1,2-b]benzo[e]oxepin-11(6H)-one] | 249 | inhibition at 40 µM (mTORC1 [3]): > 20%

Further lines, the molecule ahead of its results:

Structure (SMILES) | selective inhibition of mTORC2 (mTORC2 [2]) | remaining activity at 40 µM (mTORC2 [2]) [%] | remaining activity at 40 µM (mTORC1 [3]; 9 hours) [%] | inhibition at 40 µM (mTORC2 [2]) [%] | activity at 40 µM (LC3-II [7]) [%] | further results
CO[C@H]1C[C@@H]2CC[C@@H](C)[C@@](O)(O2)C(=O)C(=O)N2CCCC[C@H]2C(=O)O[C@H]([C@H](C)C[C@@H]2CC[C@@H](O)[C@H](OC)C2)CC(=O)[C@H](C)/C=C(\C)[C@@H](O)[C@@H](OC)C(=O)[C@H](C)C[C@H](C)/C=C/C=C/C=C/1C [rapamycin, reference compound] |  |  |  |  |  | passive avoidance latency time, % of the normal control level [1]: ~36%
O=C1c2cc(F)ccc2COc2cc3c(cc21)OCO3 [HN2203, 9-fluoro[2]benzoxepino[3,4-f]-1,3-benzodioxol-11(6H)-one] | selectively inhibit mTORC2 | 28 | 179 | > 20 | 119 | 
O=C1c2cc3c(cc2OCc2c1ccc(F)c2F)OCO3 [HN2225, 7,8-difluoro[2]benzoxepino[3,4-f]-1,3-benzodioxol-11(6H)-one] | selectively inhibit mTORC2 | 66 | 100 | > 20 | 100 | 
COc1cc2c(cc1OC)C(=O)c1cc(Br)ccc1CS2 [HN2304, 9-bromo-2,3-dimethoxydibenzo[b,e]thiepin-11(6H)-one] | selectively inhibit mTORC2 | 44 | 204 | > 20 |  | selectivity for mTORC2 over mTORC1 (mTORC2 [4]): selective mTORC2 inhibitors; effect on Akt Ser473 phosphorylation (mTORC2 [4]): reduce Akt Ser473 phosphorylation; decrease in AKT Ser473 phosphorylation at 24 hours (mTORC2 [4]): 17%; pSer473-AKT/AKT (% control) (mTORC2 [4]; 500 nM): 82 % control; AKT Ser473 phosphorylation from 1 to 12 hours (mTORC2 [4]): significantly increased; effect on S6K Thr389 phosphorylation (mTORC1 [5]): markedly increased; pThr389-S6K/S6K (% control) (mTORC1 [5]; 500 nM): 504 % control; effect on LC3-II (LC3-II [6]): not affected; LC3-II (% control) (LC3-II [6]; 500 nM): 82 % control
Cc1ccc(-c2ccc3c(c2)C(=O)c2cc4c(cc2OC3)OCO4)cc1 [HN2217, 9-(p-tolyl)[2]benzoxepino[3,4-f]-1,3-benzodioxol-11(6H)-one] | selectively inhibit mTORC2 | 38 | 224 | > 20 | 149 | 
